Reference: US20030229140A1, “Herbal molecule as potential anti-leukemic drug” (priority 2002, published 2003)

Key:
[1] = tested on: Normal PBMC; assay: Growth inhibition of normal individuals' PBMC by CA/PCQ; assay type: cell-based, human; settings: Normal individual's PBMC, 3 days, 2×10^5 cells per ml per well
Description: Preparation of peripheral blood mononuclear cells (PBMC) from normal individuals. Whole blood was collected and mononuclear cells were separated by Ficoll/Hypaque density gradient centrifugation.

[2] = tested on: CML patient's PBMC; assay: Incubation of CML patient's PBMC (leukemic cells) with CA/PCQ, viable cell count; assay type: cell-based, human; settings: for % Inhibition of cell growth (After 3 days of incubation): CML patient's leukemic cells, 2×10^5 cells per ml per well
Protocol: Whole blood (10 ml each) was drawn from previously diagnosed myeloid leukemic patients, one patient was diagnosed as AML and the other one was diagnosed as CML. Mononuclear cells were separated by Ficoll/hypaque density gradient centrifugation. […] Cells were then washed and counted for viability.

[3] = tested on: leukemic cells; assay: Biological activity (destruction of leukemic cells) of Piper betel fractions and HPLC peaks; assay type: cell-based; settings: fractions, zones and HPLC peaks of Piper betel leaf extract
Protocol: Collected material was examined for biological activity i.e. destruction of leukemic cells. […] 10 gm of above-mentioned material was loaded on Sephadex LH-20 column and chromatographed with water, water-methanol (1:1) and methanol as eluent. Three different fractions thus obtained from three different solvent systems were separately checked for biological activity. […] The column was equilibrated with methanol-water-acetic acid (23:76:1), flow rate was maintained at 1.0 ml per min and peaks were identified at 280 nm. According to the retention time (RE) different peaks could be divided into three zones, ZA/ZB and ZC (FIG. 1). ZA had 4 major peaks whereas ZB had very small to moderate 10 peaks and ZC had two distinct peaks. It was convenient to observe biological activity of three zones AA, ZB and ZC, which were separately tested on leukemia cells for destructive activity.

[4] = tested on: Erythroleukemic cell line (K562); assay: Incubation of CD33- erythroleukemic cell line K562 with CA/PCQ, viable cell count; assay type: cell-based; settings: for % Inhibition of cell growth (After 3 days of incubation): 2×10^5 cells per ml per well
Description: This cell line was collected from American Type Culture Collection (ATCC), VA, USA. This cell line is […]. […] Cells were then washed and counted for viability.

[5] = tested on: CD33+ myeloid cells; settings: earlier patent filing; cited from earlier work
[6] = tested on: Promonocytic cell line (U937); assay: Incubation of CD33+ promonocytic cell line U937 with CA/PCQ, viable cell count; assay type: cell-based; settings: for % Inhibition of cell growth (After 3 days of incubation): 2×10^5 cells per ml per well
Protocol: Culture of Promonocytic cell line U937. […] This cell line is CD33^+. Incubation of CD33^+ cell line U937 with CA. […] Cells were then washed and counted for viability.

## O=C(C=Cc1ccc(O)cc1)OC1CC(O)(C(=O)O)CC(O)C1O (stereo not shown) [PCQ, 3-o-p-Coumaryl quinic acid]
[1]; 25.0 μg/ml
  % Inhibition of cell growth (After 3 days of incubation): 0.00%
[1]; 50.0 μg/ml
  % Inhibition of cell growth (After 3 days of incubation): 1.67%
[2]; CML leukemic cells, 2×10^6/ml/well, 25 μg/ml of PCQ
  growth inhibition of leukemic cell lines: up to 2.38%
[2]; 25.0 μg/ml
  % Inhibition of cell growth (After 3 days of incubation): 2.38%
[2]; 50.0 μg/ml
  % Inhibition of cell growth (After 3 days of incubation): 4.76%
[3]
  biological activity i.e. destruction of leukemic cells (in words): demonstrated considerable activity
[4]; K562, 25.0 μg/ml
  % Inhibition of cell growth (After 3 days of incubation): 4.00%
[4]; K562, 50.0 μg/ml
  % Inhibition of cell growth (After 3 days of incubation): 8.00%
[4]; K562, 2×10^6/ml/well, 25 μg/ml
  growth inhibition of leukemic cell lines: up to 4%
[5]
  CD33+ myeloid cells destruction (in words): showed CD33+myeloid cells destruction
[6]; U937, 25.0 μg/ml
  % Inhibition of cell growth (After 3 days of incubation): 2.08%
[6]; U937, 50.0 μg/ml
  % Inhibition of cell growth (After 3 days of incubation): 4.17%
[6]; U937, 2×10^6/ml/well, 25 μg/ml of PCQ
  growth inhibition of leukemic cell lines: up to 2.08%
